Experimental data as given in ChEMBL document CHEMBL1136234, “Cyclohexanedione herbicides are inhibitors of rat heart acetyl-CoA carboxylase” (Bioorg Med Chem Lett, 2003).

Legend:
[1] = target: T1, Acetyl-CoA carboxylase 1 (Rattus norvegicus, UniProt P11497); experiment: Inhibitory concentration against rat heart ACC by the carboxylation of acetyl-CoA with [14C]HCO3- to form [14C]-malonyl CoA
[2] = target: T1, Acetyl-CoA carboxylase 1; experiment: Inhibitory concentration against rat heart ACC by the carboxylation of acetyl-CoA with [14C]-HCO3- to form [14C]-malonyl CoA; 18-40 uM

Row | SMILES | IC50 [1] | IC50 [2]
1 | C=CCO/N=C(\CCC)C1=C(O)C(C(=O)OC)C(C)(C)CC1=O (stereo unspecified) [ALLOXYDIM] | > 100 µM | 
2 | CCO/N=C(\CC)C1=C(O)CC(c2c(C)cc(C)cc2C)CC1=O (stereo unspecified) [TRALKOXYDIM] |  | 40 µM
3 | CC/C(=N\OC/C=C/Cl)C1=C(O)CC(C2CCOCC2)CC1=O (stereo unspecified) [TEPRALOXYDIM] |  | 40 µM
4 | CCSC(C)CC1CC(=O)C(/C(CC)=N/OC/C=C/Cl)=C(O)C1 (stereo unspecified) [CLETHODIM] |  | 40 µM
5 | CCC/C(=N\OCC)C1=C(O)CC(C2CCCSC2)CC1=O (stereo unspecified) |  | 40 µM
6 | CCC/C(=N\OCC)C1=C(O)CC(CC(C)SCC)CC1=O (stereo unspecified) [SETHOXYDIM] |  | 40 µM
